For experiment [1], the target named is T1, 5-HT1A receptor (Homo sapiens, UniProt P08908).
T1 sequence (P08908 1-422): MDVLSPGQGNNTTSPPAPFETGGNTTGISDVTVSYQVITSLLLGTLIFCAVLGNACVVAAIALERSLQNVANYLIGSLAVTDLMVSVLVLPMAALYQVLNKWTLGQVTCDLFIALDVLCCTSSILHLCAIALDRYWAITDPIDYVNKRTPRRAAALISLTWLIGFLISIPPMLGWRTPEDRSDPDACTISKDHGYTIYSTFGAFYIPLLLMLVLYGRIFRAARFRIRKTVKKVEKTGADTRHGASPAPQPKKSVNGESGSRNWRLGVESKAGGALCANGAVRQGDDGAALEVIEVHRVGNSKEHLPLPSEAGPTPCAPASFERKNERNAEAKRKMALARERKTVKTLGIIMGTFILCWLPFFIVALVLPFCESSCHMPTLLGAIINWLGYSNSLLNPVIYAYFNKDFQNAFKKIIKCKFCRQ
Put plainly: CNS Receptor Binding Assay, 5-HT1A. As to conditions: PART I - TABLE I; test compounds at 1 microMolar concentration competing with radioligand; 100 = binds as well as standard 8-OH-DPAT. The source says: (§1) CNS Receptor Binding Assay (PART I - TABLE I): The Central Nervous System Binding Assay measures the percent inhibibition from experiments employing test compounds at 1 microMolar concentration competing with various radioligands for binding to whole brain membranes, membranes prepared from specific brain structures, or membranes prepared from cell lines expressing cloned receptors. When percent inhibition is equal to 100 the test compound binds as well as the standard compound. The standard compound for the 5-HT1A receptor is 8-OH-DPAT. The standard compound for the dopamine D1 receptor is SCH 23390.

Experiment [2] deals with dopamine D1 receptor (Homo sapiens, UniProt P21728). Put plainly: CNS Receptor Binding Assay, dopamine D1. The settings on record: PART I - TABLE I; test compounds at 1 microMolar concentration; standard SCH 23390.
Text: as §1
(§2) CNS Receptor Binding Assay (PART II - TABLE I): The Central Nervous System Binding Assay measures the percent inhibition from experiments employing test compounds at 1 microMolar concentration competing with various radioligands for binding to whole brain membranes, membranes prepared from specific brain structures, or membranes prepared from cell lines expressing cloned receptors. When percent inhibition is equal to 100 the test compound binds as well as the standard compound. The standard compound for the dopamine D1 receptor is SCH 23390.

In experiment [3] the target is Dopamine - D2 (Homo sapiens, UniProt P14416). In words: CNS Receptor Binding Assay, dopamine D2. As to conditions: PART I - TABLE I; test compounds at 1 microMolar concentration.
Text: as §1, §2

Sequence of Dopamine - D2 (P14416 whole entry): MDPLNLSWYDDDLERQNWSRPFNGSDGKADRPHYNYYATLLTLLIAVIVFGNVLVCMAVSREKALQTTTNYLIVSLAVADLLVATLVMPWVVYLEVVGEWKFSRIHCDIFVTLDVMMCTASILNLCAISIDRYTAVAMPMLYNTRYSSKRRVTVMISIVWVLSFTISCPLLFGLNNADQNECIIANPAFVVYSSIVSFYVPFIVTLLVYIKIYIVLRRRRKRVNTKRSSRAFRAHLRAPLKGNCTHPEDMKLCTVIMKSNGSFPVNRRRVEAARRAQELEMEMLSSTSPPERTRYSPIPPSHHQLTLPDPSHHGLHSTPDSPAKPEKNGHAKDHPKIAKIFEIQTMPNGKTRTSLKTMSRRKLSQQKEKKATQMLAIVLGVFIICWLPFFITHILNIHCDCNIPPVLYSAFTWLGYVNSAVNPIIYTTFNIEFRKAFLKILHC
Sequence of dopamine D1 receptor (P21728 whole entry, species assumed): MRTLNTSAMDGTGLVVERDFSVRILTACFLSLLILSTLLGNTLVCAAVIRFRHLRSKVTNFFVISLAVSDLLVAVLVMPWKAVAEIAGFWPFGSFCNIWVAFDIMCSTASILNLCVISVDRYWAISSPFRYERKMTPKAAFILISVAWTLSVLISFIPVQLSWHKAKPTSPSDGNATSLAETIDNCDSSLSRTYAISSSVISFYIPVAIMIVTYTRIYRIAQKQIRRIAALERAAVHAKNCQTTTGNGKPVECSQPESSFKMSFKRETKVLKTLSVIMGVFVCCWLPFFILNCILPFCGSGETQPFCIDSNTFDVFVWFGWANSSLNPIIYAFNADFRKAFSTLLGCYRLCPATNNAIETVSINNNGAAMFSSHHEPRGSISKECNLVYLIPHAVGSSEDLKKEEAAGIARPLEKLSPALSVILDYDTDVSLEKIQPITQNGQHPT

Turning to `CCCN1CCC2Cc3cccc(C(N)=O)c3C2CC1` (single isomer, unassigned) [compound 3], the 5-HT1A % inhibition in experiment [1] is 93%. In addition, the “Dopamine - D1 % inhibition” value in experiment [2] is listed as 13%. In addition, the “Dopamine - D2 % inhibition” value in experiment [3] stood at 45%.
The corresponding values for `CCCN1CCC2Cc3cccc(C(N)=O)c3C2CC1` (single isomer, unassigned) [compound 4] are 21%, 0% and 2%.
The term inhibition denotes how much of the control response was suppressed. A lower inhibition goes with a weak effect. Regarding `CCCN1CCC2Cc3c(C(N)=O)cccc3C2CC1` (single isomer, unassigned) [compound 5], the inhibition at 1 µM in experiment [1] and in experiment [3] was 24% each time. In addition, the “Dopamine - D1 % inhibition” value in experiment [2] is 10%.
In the case of `CCCN1CCC2Cc3c(C(N)=O)cccc3C2CC1` (single isomer, unassigned) [compound 6], in experiment [1], the 5-HT1A % inhibition worked out at 18%. Further, the “Dopamine - D1 % inhibition” value in experiment [2] is reported as 50%. In experiment [3], the “Dopamine - D2 % inhibition” value worked out at 31%.
For `CCCN1CCC2Cc3c(C#N)cccc3C2CC1` (single isomer, unassigned) [compound 7] the same measures were 17%, 11% and 22%.
In the case of `CCCN1CCC2Cc3c(C#N)cccc3C2CC1` (single isomer, unassigned) [compound 8], the inhibition at 1 µM was determined as 15% in experiment [1], 7% in experiment [2] and 35% in experiment [3].
For `CCCN1CCC2Cc3c(Cl)ccc(OC)c3C2CC1` (stereo not drawn) [compound 1] the same measures were 99%, 57% and 74%.

Values taken from EP0539209A1, “Benzo-isoquinoline derivatives and analogs and their use in therapeutics” (THE UPJOHN COMPANY, priority 1991, dated 1993).
